Measured values: PubChem BioAssay AID328 (DTP/NCI, 2004)
Toxic doses and inconclusive results are not listed. How the source made its calls: active means survival T/C of 150% or more; inactive means T/C below 125% in these data.

Tested on: BDF1 mice, P388 leukemia ip, median survival T/C
Assay: NCI In Vivo Anticancer Drug Screen. Data for tumor model P388 Leukemia (intraperitoneal) in B6D2F1 (BDF1) mice
Details: endpoint: median survival time, higher = longer survival
Method in brief: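 Read-out is survival of treated animals expressed relative to the vehicle group, as a T/C ratio.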

[1] = dose: 25.0 mg/kg/injection, schedule: Q01DX009 (ip), vehicle: saline with Tween-80
[2] = dose: 50.0 mg/kg/injection, schedule: Q01DX009 (ip), vehicle: saline with Tween-80
[3] = dose: 100.0 mg/kg/injection, schedule: Q01DX009 (ip), vehicle: saline with Tween-80
[4] = dose: 100.0 mg/kg/injection, schedule: Q04DX003 (ip), vehicle: saline with Tween-80
[5] = dose: 200.0 mg/kg/injection, schedule: Q01DX009 (ip), vehicle: saline with Tween-80
[6] = dose: 200.0 mg/kg/injection, schedule: Q04DX003 (ip), vehicle: saline with Tween-80
[7] = dose: 400.0 mg/kg/injection, schedule: Q04DX003 (ip), vehicle: saline with Tween-80
[8] = dose: 400.0 mg/kg/injection, schedule: Q01DX009 (ip), vehicle: saline with Tween-80
[9] = dose: 100.0 mg/kg/injection, schedule: Q01DX001 (ip), vehicle: saline with Tween-80
[10] = dose: 200.0 mg/kg/injection, schedule: Q01DX001 (ip), vehicle: saline with Tween-80
[11] = dose: 100.0 mg/kg/injection, schedule: Q01DX009 (ip), vehicle: saline

Measured: T/C

CCOC(=O)CCCN(c1sc(C)c(C)c1C(=O)OCC)S(=O)(=O)c1ccc(C)cc1
inactive: [1] 104 % of control | [2] 109 % of control | dose: 50.0 mg/kg/injection, schedule: Q04DX003 (ip), vehicle: saline with Tween-80 91 % of control | [3] 104 % of control | [4] 87 % of control | [5] 95 % of control | [6] 95 % of control | [7] 87 % of control

CC(=O)OCC(CCn1ccc(=O)[nH]c1=O)COC(C)=O
inactive: [3] 90 % of control | [4] 98 % of control | [5] 100 % of control | [6] 98 % of control | [8] 90 % of control | [7] 100 % of control

O=[N+]([O-])c1ccc(N2CCN(c3cccc(C(F)(F)F)c3)CC2)c([N+](=O)[O-])c1
inactive: [4] 113 % of control | [6] 100 % of control | [7] 100 % of control

CC(C)(C)[Si](C)(C)OC(=O)NCCCl
inactive: dose: 100.0 mg/kg/injection, schedule: Q04DX002 (ip), vehicle: saline with Tween-80 100 % of control | dose: 200.0 mg/kg/injection, schedule: Q04DX002 (ip), vehicle: saline with Tween-80 109 % of control | dose: 400.0 mg/kg/injection, schedule: Q04DX002 (ip), vehicle: saline with Tween-80 118 % of control

CC1(C)CC(C)(OC(=O)c2ccccc2)N=N1 (configuration not stated)
inactive: dose: 25.0 mg/kg/injection, schedule: Q01DX005 (ip), vehicle: other 98 % of control | dose: 50.0 mg/kg/injection, schedule: Q01DX005 (ip), vehicle: other 98 % of control | dose: 100.0 mg/kg/injection, schedule: Q01DX005 (ip), vehicle: other 99 % of control | dose: 200.0 mg/kg/injection, schedule: Q01DX005 (ip), vehicle: other 99 % of control | dose: 400.0 mg/kg/injection, schedule: Q01DX005 (ip), vehicle: other 119 % of control

O=C1CCCC(=O)N1CCCCCCN1C(=O)CCCC1=O
inactive: [2] 104 % of control | [3] 112 % of control

CCCCCCCCCCCC[Si](CCCCCCCCCCCC)(c1ccccc1)c1ccccc1
inactive: dose: 100.0 mg/kg/injection, schedule: Q01DX009 (ip), vehicle: other 95 % of control | [4] 100 % of control | dose: 200.0 mg/kg/injection, schedule: Q01DX009 (ip), vehicle: other 114 % of control | [6] 100 % of control | dose: 400.0 mg/kg/injection, schedule: Q01DX009 (ip), vehicle: other 109 % of control | [7] 100 % of control

O=C1c2ccc(O)cc2C(=O)c2ccc(O)cc21
inactive: dose: 66.0 mg/kg/injection, schedule: Q01DX009 (ip), vehicle: saline with Tween-80 109 % of control | [3] 109 % of control | dose: 150.0 mg/kg/injection, schedule: Q01DX009 (ip), vehicle: saline with Tween-80 109 % of control | [8] 120 % of control

c1cc(Sc2cccc3nncn23)n2cnnc2c1
inactive: [9] 103 % of control | [10] 97 % of control | dose: 400.0 mg/kg/injection, schedule: Q01DX001 (ip), vehicle: saline with Tween-80 103 % of control

O=[N+]([O-])c1ccc(N2[C@@H]3C4CCC([C@@H]32)C42OCCO2)cc1
inactive: dose: 50.0 mg/kg/injection, schedule: Q01DX001 (ip), vehicle: saline with Tween-80 93 % of control | [9] 118 % of control | [10] 93 % of control

Cc1ccc(NC(=O)OCCOc2ccc(-c3ccccc3)cc2)c([N+](=O)[O-])c1
inactive: dose: 12.5 mg/kg/injection, schedule: Q01DX009 (ip), vehicle: DMSO 100 % of control | dose: 25.0 mg/kg/injection, schedule: Q01DX009 (ip), vehicle: DMSO 119 % of control | dose: 50.0 mg/kg/injection, schedule: Q01DX009 (ip), vehicle: DMSO 102 % of control

CC1CN(Cc2cccc(C#N)c2)CC(C)N1 (configuration not stated)
inactive: dose: 6.25 mg/kg/injection, schedule: Q01DX009 (ip), vehicle: water 95 % of control | dose: 12.5 mg/kg/injection, schedule: Q01DX009 (ip), vehicle: water 110 % of control | dose: 25.0 mg/kg/injection, schedule: Q01DX009 (ip), vehicle: water 101 % of control | dose: 25.0 mg/kg/injection, schedule: Q04DX003 (ip), vehicle: water 101 % of control | dose: 50.0 mg/kg/injection, schedule: Q01DX009 (ip), vehicle: water 95 % of control | dose: 50.0 mg/kg/injection, schedule: Q04DX003 (ip), vehicle: water 100 % of control | dose: 100.0 mg/kg/injection, schedule: Q01DX009 (ip), vehicle: water 110 % of control | dose: 100.0 mg/kg/injection, schedule: Q04DX003 (ip), vehicle: water 111 % of control

Br/C(=N\Nc1nn[nH]n1)c1ccccc1
inactive: [4] 87 % of control | [6] 91 % of control | [7] 91 % of control

S=c1nc[nH]c2nc[nH]c12.[Ag]
inactive: [11] 100 % of control | dose: 200.0 mg/kg/injection, schedule: Q01DX009 (ip), vehicle: saline 108 % of control | dose: 400.0 mg/kg/injection, schedule: Q01DX009 (ip), vehicle: saline 87 % of control

CCC1CCCC1O (configuration not stated)
inactive: [2] 101 % of control | [3] 102 % of control | [5] 100 % of control

Cc1ccn2c(CCc3nnc4cc(C)ccn34)nnc2c1
inactive: [2] 90 % of control | [3] 93 % of control | [5] 106 % of control

CCN(CC)CC(COC)Oc1cc(C)ccc1C(C)C (configuration not stated)
inactive: [2] 100 % of control | [3] 91 % of control

CCOC(=O)CSc1sc(C(=O)OCC)c(N)c1C#N
inactive: dose: 12.5 mg/kg/injection, schedule: Q01DX009 (ip), vehicle: saline with Tween-80 99 % of control | [1] 99 % of control | [2] 99 % of control

O=C(CC(=O)C(F)(F)C(F)(F)C(F)(F)F)c1csc2ccccc12
inactive: dose: 6.25 mg/kg/injection, schedule: Q01DX009 (ip), vehicle: Klucel (hydroxypropylcellulose) (HPC) 91 % of control | dose: 12.5 mg/kg/injection, schedule: Q01DX009 (ip), vehicle: Klucel (hydroxypropylcellulose) (HPC) 95 % of control | dose: 25.0 mg/kg/injection, schedule: Q01DX009 (ip), vehicle: Klucel (hydroxypropylcellulose) (HPC) 95 % of control | [1] 95 % of control | dose: 50.0 mg/kg/injection, schedule: Q01DX009 (ip), vehicle: Klucel (hydroxypropylcellulose) (HPC) 100 % of control | [2] 100 % of control | dose: 100.0 mg/kg/injection, schedule: Q01DX009 (ip), vehicle: Klucel (hydroxypropylcellulose) (HPC) 115 % of control | [3] 91 % of control | [11] 115 % of control | dose: 100.0 mg/kg/injection, schedule: Q04DX003 (ip), vehicle: Klucel (hydroxypropylcellulose) (HPC) 104 % of control | dose: 200.0 mg/kg/injection, schedule: Q04DX003 (ip), vehicle: Klucel (hydroxypropylcellulose) (HPC) 104 % of control | dose: 400.0 mg/kg/injection, schedule: Q04DX003 (ip), vehicle: Klucel (hydroxypropylcellulose) (HPC) 109 % of control

CCS(=O)(=O)C(N=Nc1ccccc1)S(=O)(=O)CC
inactive: dose: 20.0 mg/kg/injection, schedule: Q01DX009 (ip), vehicle: Klucel (hydroxypropylcellulose) (HPC) 107 % of control | dose: 40.0 mg/kg/injection, schedule: Q01DX009 (ip), vehicle: Klucel (hydroxypropylcellulose) (HPC) 101 % of control | dose: 80.0 mg/kg/injection, schedule: Q01DX009 (ip), vehicle: Klucel (hydroxypropylcellulose) (HPC) 107 % of control

C[N+](C)(CC(=O)Nc1ccc(Cl)c(Cl)c1)CC(=O)c1ccc(Cl)c(Cl)c1
inactive: dose: 400.0 mg/kg/injection, schedule: Q04DX003 (ip), vehicle: saline sonified 87 % of control
